Literature values as cited in US20130122091A1, “POLYDEOXYRIBONUCLEOTIDE-BASED COMPOSITIONS AND THEIR METHODS OF USE” (MEDESTEA INTERNAZIONALE SPA, priority 2010, published 2013).

What was measured:
[1] = PDRN-treated survivors, versus 2% of non-PDRN-treated survivors

Substance: polydeoxyribonucleotides [PDRNs]
- increase in the number of fibroblasts (fibroblasts): 35%
- increase in the production of all the dermal matrix components (fibroblasts): 30%
- Resolution of the serious hepatic veno-occlusive disease [1]: 42%
